The results in this text go back to BindingDB's records for doi:10.1111/j.1432-1033.1991.tb16455.x (Georg-August-University, 1991).

The assay addresses T1, Pituitary adenylate cyclase-activating polypeptide (Rattus norvegicus, UniProt P13589).
T1 sequence (P13589 whole entry): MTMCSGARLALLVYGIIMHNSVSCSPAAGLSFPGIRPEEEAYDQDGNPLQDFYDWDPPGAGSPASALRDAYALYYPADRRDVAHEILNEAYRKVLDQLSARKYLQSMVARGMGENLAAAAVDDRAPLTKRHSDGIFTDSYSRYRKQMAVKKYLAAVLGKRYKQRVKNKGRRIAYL

Square brackets hold non-standard residues; d marks the D form. Peptide text beside a SMILES is read from it. ξ: configuration not given here. Ile(3ξ) = CCC(C)[C@H](N)C(=O)O

Compound `Nc1nc2c(ncn2[C@@H]2O[C@H](COP(=O)(O)OP(=O)(O)OP(=O)(O)O)C(O)C2O)c(=O)[nH]1` (stereo partly specified) [+ 1 mM GTP] displayed a Ki of 600 nM.

On to `CC[C@H](C)[C@H](NC(=O)[C@H](CO)NC(=O)[C@H](CC(N)=O)NC(=O)[C@H](CC(C)C)NC(=O)[C@H](Cc1ccc(O)cc1)NC(=O)[C@H](CCCCN)NC(=O)[C@H](CCCCN)NC(=O)[C@@H](NC(=O)[C@H](C)NC(=O)[C@H](CCSC)NC(=O)[C@H](CCC(N)=O)NC(=O)[C@H](CCCCN)NC(=O)[C@H](CCCN=C(N)N)NC(=O)[C@H](CC(C)C)NC(=O)[C@H](CCCN=C(N)N)NC(=O)[C@@H](NC(=O)[C@H](Cc1ccc(O)cc1)NC(=O)[C@H](CC(N)=O)NC(=O)[C@H](CC(=O)O)NC(=O)[C@@H](NC(=O)[C@H](Cc1ccccc1)NC(=O)[C@@H](NC(=O)[C@H](C)NC(=O)[C@H](CC(=O)O)NC(=O)[C@H](CO)NC(=O)[C@@H](N)Cc1cnc[nH]1)C(C)C)[C@@H](C)O)[C@@H](C)O)C(C)C)C(=O)N[C@@H](CC(C)C)C(=O)N[C@@H](CC(N)=O)C(=O)O` [CAS_37221-79-7], for which the inhibitory constant (Ki) stood at 1000 nM.

With `Nc1nc2c(ncn2C2OC(COP(=O)(O)OP(=O)(O)OP(=O)(O)S)C(O)C2O)c(=O)[nH]1` (stereo unspecified) [CAS_444121], the inhibition constant (Ki) is 40 nM.

`Nc1nc2c(ncn2[C@H]2O[C@@H](COP(=O)(O)O)[C@H](O)[C@@H]2O)c(=O)[nH]1` [NSC_6804]: the Ki was greater than 10000 nM.

`Nc1nc2c(ncn2C2OC(COP(O)(=S)OP(=O)(O)O)C(O)C2O)c(=O)[nH]1` (stereo unspecified) [NSC_196042] had an inhibition constant Ki of 340 nM.

Consider `CC[C@H](C)[C@H](NC(=O)CNC(=O)[C@H](CC(=O)O)NC(=O)[C@H](CO)NC(=O)[C@@H](N)Cc1cnc[nH]1)C(=O)N[C@@H](Cc1ccccc1)C(=O)N[C@H](C(=O)N[C@@H](CC(=O)O)C(=O)N[C@@H](CO)C(=O)N[C@@H](Cc1ccc(O)cc1)C(=O)N[C@@H](CO)C(=O)N[C@@H](CCCN=C(N)N)C(=O)N[C@@H](Cc1ccc(O)cc1)C(=O)N[C@@H](CCCN=C(N)N)C(=O)N[C@@H](CCCCN)C(=O)N[C@@H](CCC(N)=O)C(=O)N[C@@H](CCSC)C(=O)N[C@@H](C)C(=O)N[C@H](C(=O)N[C@@H](CCCCN)C(=O)N[C@@H](CCCCN)C(=O)N[C@@H](Cc1ccc(O)cc1)C(=O)N[C@@H](CC(C)C)C(N)=O)C(C)C)[C@@H](C)O` [PACAP(1-23)], for which affinity was put at a Ki of 1000 nM.

For the compound `CC[C@H](C)[C@H](NC(=O)CNC(=O)[C@H](CCC(=O)O)NC(=O)[C@H](CO)NC(=O)[C@@H](N)Cc1cnc[nH]1)C(=O)N[C@@H](Cc1ccccc1)C(=O)N[C@H](C(=O)N[C@@H](CC(=O)O)C(=O)N[C@@H](CO)C(=O)N[C@@H](Cc1ccc(O)cc1)C(=O)N[C@@H](CO)C(=O)N[C@@H](CCCNC(=N)N)C(=O)N[C@@H](Cc1ccc(O)cc1)C(=O)N[C@@H](CCCNC(=N)N)C(=O)N[C@@H](CCCCN)C(=O)N[C@@H](CCC(N)=O)C(=O)N[C@@H](CCSC)C(=O)N[C@@H](C)C(=O)N[C@H](C(=O)N[C@@H](CCCCN)C(=O)N[C@@H](CCCCN)C(=O)N[C@@H](Cc1ccc(O)cc1)C(=O)N[C@@H](CC(C)C)C(=O)N[C@@H](C)C(=O)N[C@@H](C)C(=O)N[C@H](C(=O)N[C@@H](CC(C)C)C(N)=O)C(C)C)C(C)C)[C@@H](C)O` [PACAP(1-27)], affinity was put at a Ki of 4.7 nM.

Turning to `CCC(C)[C@H](NC(=O)CNC(=O)[C@H](CC(=O)O)NC(=O)[C@H](CO)NC(=O)[C@@H](N)Cc1cnc[nH]1)C(=O)N[C@@H](Cc1ccccc1)C(=O)N[C@H](C(=O)N[C@@H](CC(=O)O)C(=O)N[C@@H](CO)C(=O)N[C@@H](Cc1ccc(O)cc1)C(=O)N[C@@H](CO)C(=O)N[C@@H](CCCN=C(N)N)C(=O)N[C@@H](Cc1ccc(O)cc1)C(=O)N[C@@H](CCCN=C(N)N)C(=O)N[C@@H](CCCCN)C(=O)N[C@@H](CCC(N)=O)C(=O)N[C@@H](CCSC)C(=O)N[C@@H](C)C(=O)N[C@H](C(=O)N[C@@H](CCCCN)C(=O)N[C@@H](CCCCN)C(=O)N[C@@H](Cc1ccc(O)cc1)C(=O)N[C@@H](CC(C)C)C(=O)N[C@@H](C)C(=O)N[C@@H](C)C(=O)N[C@H](C(=O)N[C@@H](CC(C)C)C(=O)NCC(=O)N[C@@H](CCCCN)C(=O)N[C@@H](CCCN=C(N)N)C(=O)N[C@@H](Cc1ccc(O)cc1)C(=O)N[C@@H](CCCCN)C(=O)N[C@@H](CCC(N)=O)C(=O)N[C@@H](CS)C(N)=O)C(C)C)C(C)C)[C@@H](C)O` (stereo partly specified) [PACAP(1-33,Cys34)], the inhibition constant (Ki) turned out to be 6.4 nM. The Ki values of the last two compounds are within 1.5-fold of each other.

In turn, `CCC(C)[C@H](NC(=O)CNC(=O)[C@@H](N)CC(=O)O)C(=O)N[C@@H](Cc1ccccc1)C(=O)N[C@H](C(=O)N[C@@H](CC(=O)O)C(=O)N[C@@H](CO)C(=O)N[C@@H](Cc1ccc(O)cc1)C(=O)N[C@@H](CO)C(=O)N[C@@H](CCCN=C(N)N)C(=O)N[C@@H](Cc1ccc(O)cc1)C(=O)N[C@@H](CCCN=C(N)N)C(=O)N[C@@H](CCCCN)C(=O)N[C@@H](CCC(N)=O)C(=O)N[C@@H](CCSC)C(=O)N[C@@H](C)C(=O)N[C@H](C(=O)N[C@@H](CCCCN)C(=O)N[C@@H](CCCCN)C(=O)N[C@@H](Cc1ccc(O)cc1)C(=O)N[C@@H](CC(C)C)C(=O)N[C@@H](C)C(=O)N[C@@H](C)C(N)=O)C(C)C)[C@@H](C)O` (stereo partly specified) [PACAP(3-25)] (H-DG[Ile(3ξ)]FTDSYSRYRKQMAVKKYLAA-NH2) displayed a Ki of 1000 nM. Compared with the last compound, the Ki is about 160-fold higher.

On to `CC[C@H](C)[C@H](NC(=O)CNC(=O)[C@H](CC(=O)O)NC(=O)[C@H](CO)NC(=O)[C@@H](N)Cc1cnc[nH]1)C(=O)N[C@@H](Cc1ccccc1)C(=O)N[C@H](C(=O)N[C@@H](CC(=O)O)C(=O)N[C@@H](CO)C(=O)N[C@@H](Cc1ccc(O)cc1)C(=O)N[C@@H](CO)C(=O)N[C@@H](CCCNC(=N)N)C(=O)N[C@@H](Cc1ccc(O)cc1)C(=O)N[C@@H](CCCNC(=N)N)C(=O)N[C@@H](CCCCN)C(=O)N[C@@H](CCC(N)=O)C(=O)N[C@@H](CCSC)C(=O)N[C@@H](C)C(=O)N[C@H](C(=O)N[C@@H](CCCCN)C(=O)N[C@@H](CCCCN)C(=O)N[C@@H](Cc1ccc(O)cc1)C(=O)N[C@@H](CC(C)C)C(=O)N[C@@H](C)C(=O)N[C@@H](C)C(=O)N[C@H](C(=O)N[C@@H](CC(C)C)C(=O)NCC(=O)N[C@@H](CCCCN)C(=O)N[C@@H](CCCNC(=N)N)C(=O)N[C@@H](Cc1ccc(O)cc1)C(=O)N[C@@H](CCCCN)C(=O)N[C@@H](CCC(N)=O)C(=O)N[C@@H](CCCNC(=N)N)C(=O)N[C@H](C(=O)N[C@@H](CCCCN)C(=O)N[C@@H](CC(N)=O)C(=O)N[C@@H](CCCCN)C(N)=O)C(C)C)C(C)C)C(C)C)[C@@H](C)O` [PACAP], for which the Ki came to 1.9 nM.

“H-HSDGIFTDSYSRYRKQMAVKKYLNSILN-NH2 [PACAP(1-23),VIP(24-28)]” displayed a Ki of 3.1 nM.

What is called Ki is a measure of affinity in units of concentration, obtained from inhibition or displacement.
